In patent US5093371A, “Naphthyl ketone inhibitors of cholesterol esterase and their use as hypolipidemic and hypocaloric agents” (University of Iowa Research Foundation, priority 1990, dated 1992):

Biological target: Cholesterol esterase (CEase)
Assay: Inhibition of CEase-catalyzed hydrolysis of p-nitrophenylbutyrate (PNPB)
Assay type: biochemical
Conditions: for Ki: 25.0±0.1 C, pH 7.3, 0.1 M sodium phosphate, 1 mM Triton X100, substrate PNPB, read-out: Ki (inhibition constants for difluoroketone inhibitors of cholesterol esterase)
Method: The CEase-catalyzed hydrolysis of the water-soluble substrate p-nitrophenylbutyrate (PNPB) is a reaction that is routinely used to characterize inhibitors. The reaction is followed at 25.0±0.1.C and pH 7.3 in 0.1 M sodium phosphate buffer that contains 0.1 N NaC1 , 1 mM Triton X100, and the appropriate concentrations of CEase and PNPB. Inhibitor characterization occurs in two stages: (a) the form of the inhibition is determined by fitting substrate timecourse data to the integrated form of the Michaelis-Menten equation by nonlinear-least squares methods: [formula] Reactions are run in the absence and presence of inhibitor. Lineweaver-Burk plots of the data are constructed, as shown in FIG. 1 for inhibition by iododifluoromethyl 2-naphthyl ketone. (b) The dissociation constant of the CEase-inhibitor complex, Ki, is determined by one of two methods. In the first (Method A), […] is calculated from a replot of the apparent Km values (determined by fitting timecourses to equation (1)) versus inhibitor concentration. The replot is described by equation 2: [formula] […] In the second approach (Method B), initial velocity (Vi) versus inhibitor concentration data are fit by nonlinear-least squares to equation 3: [formula] […] The apparent Ki is then used to calculate the actual Ki from equation 4:
Ki =Ki^app /(1+[S]/Km) (4)
In equation 4 [S] is the concentration of the substrate PNPB and Km, the Michaelis constant for CEase-catalyzed hydrolysis of PNPB, is 0.09 mM.

SMILES | Ki [nM] | CEase inhibition (in words) (summary of Table I Ki values) | Km (Michaelis constant used in equation 4) [µM]
O=C(c1ccc2ccccc2c1)C(F)(F)Cl [Compound 1, Chlorodifluoromethyl 2-Naphthyl Ketone] | 2000 | – | –
COc1ccc2cc(C(=O)C(F)(F)Cl)ccc2c1 [Compound 2, Chlorodifluoromethyl 2-(6-Methoxy)naphthyl Ketone] | 6000 | – | –
O=C(c1ccc2ccccc2c1)C(F)(F)I [Compound 3, Iododifluoromethyl 2-Naphthyl Ketone] | 800 | – | –
CCCCC(F)(F)C(=O)c1ccc2ccccc2c1 [Compound 4, 1,1-Difluoropentyl 2-Naphthyl Ketone] | 270 | – | –
CCCCC(F)(F)C(=O)c1ccc2cc(OC)ccc2c1 [Compound 5, 1,1-Difluoropentyl 2-(6-Methoxy)naphthyl Ketone] | 380 | – | –
CCCCCC(F)(F)C(=O)c1ccc2ccccc2c1 [Compound 6, 1,1-Difluorohexyl 2-Naphthyl Ketone] | 80 | most potent inhibitor | –
CCCC(=O)Oc1ccc([N+](=O)[O-])cc1 [PNPB, p-nitrophenylbutyrate, reference compound] | – | – | 90
